In PubChem BioAssay AID1195 (EPA DSSTox, 2008):
Starred links: 1 amine or outer side, 2 acyl side, 3 side chain; linkers in the order of their positions; H or OH if unused. Positions of bridges follow the written chain, without caps; N, C: chain ends. Non-standard residues stand in square brackets, D forms with d. Residues, ends and D or L forms follow the SMILES beside them. *: point of attachment. X1 = NC1=N[C@@H]([C@H](N[*:1])C(=O)[*:2])C[C@H](O)N1; ΔAla(Z-3-ureido) = NC(=O)N/C=C(\N)C(=O)O; β3hOrn = NCCC[C@H](N)CC(=O)*; Dap = NC[C@H](N)C(=O)O

System: human maximum recommended daily dose, FDA database
Assay: DSSTox (FDAMDD) FDA Maximum (Recommended) Daily Dose Database
Details: active compounds read low
From the text: The Food and Drug Administration (FDA) Center for Drug Evaluation and Research, Office of Pharmaceutical Science, Informatics and Computational Safety Analysis Staff's Maximum Recommended Daily Dose (FDAMDD) database contains values for over 1200 pharmaceuticals listed in Martindale: The Extra Pharmacopoeia (1973, 1983, and 1993) and The Physicians' Desk Reference (1995 and 1999). Some classes of chemicals were excluded from the FDAMDD database due to their unsuitability for most QSAR modeling programs. These were inorganic chemicals, high molecular weight polymers (>5000 Daltons), fibers, salts, mixtures of organic chemicals, and small molecules (<100 Daltons). FDAMDD is the non-proprietary portion of the database that was used in the QSAR analysis reported in the Main Citation. DSSTox FDAMDD has fewer substance records than the original MRDD Source database due to consolidation of partial structures (i.e., complexed entities) into a single record and elimination of duplicate entries. DSSTox FDAMDD also differs from the MRDD Source database in presenting complete structural information pertaining to the actual salt or complexed form corresponding to the listed ChemicalName and CASRN. According to the Source authors, there are a number of cases where multiple related forms or derivatives of a drug were listed as separate records but were assumed to fall under the same clinical toxicity assessment and, therefore, assigned the same Dose_MRDD_mg activity value. For the DSSTox FDAMDD, we have labeled these derivatives in the ChemClass_MRDD_grouping field and provide their counts in the ChemicalReplicateCount field to highlight their special nature.
Maximum recommended daily dose (or maximum recommended therapeutic dose) values were determined from pharmaceutical clinical trials that employed an oral route of exposure and daily treatments, usually for 3-12 months. Drugs were given as single or divided dose treatment regimens to achieve desired pharmacological effects. Roughly 5% of the pharmaceuticals in the FDAMDD data file were antineoplastics and anesthetics and were administered intravenously and/or intramuscularly. When separate MRDDs were reported for different routes of exposure, only the oral MRDD was included in the data file and only MRDD values reported for the average adult patient were used. Pharmaceuticals that are administered orally are usually tested over a limited range of doses and have MRDDs reported as mg/day. The mg/day unit was converted to mg/kg-body weight (bw)/day based upon an average adult weighing 60 kg. In contrast, the dose unit for most antineoplastic drug MRDDs is reported as mg/m2 which was converted to mg/kg-bw/day using the formula mg/kg-bw/day = mg/m2/37 for an average adult. Additionally, a few drugs had MRDDs reported in parts per million (ppm) which were converted to mg/kg-bw/day on the basis that 1000 ppm equals 25 mg/kg-bw/day for an average 60 kg adult. Activity Score is mapping of LOG10(1/Dose_MRDD_mmol) spanning activity range [MIN, MAX] onto Integer 1-100 Activity range, where 100 is highest potency and 1 is lowest potency: ActivityScore = 100 * INTEGER[(LOGINV_MRDD_mmol - MIN)/(MAX […] MIN)]. Activity Outcome is "active" for all substances, since Dose_MRDD_mmol is reported for all substances.

[1] = TherapeuticCategory: antibacterial
[2] = TherapeuticCategory: antihistaminic
[3] = TherapeuticCategory: antimalarial
[4] = TherapeuticCategory: cholinergic
[5] = TherapeuticCategory: anxiolytic
[6] = TherapeuticCategory: antihypertensive
[7] = TherapeuticCategory: antineoplastic
[8] = TherapeuticCategory: glucocorticoid
[9] = TherapeuticCategory: diagnostic aid
[10] = TherapeuticCategory: narcotic analgesic

## CCCCCCCCCCC[C@@H](C[C@@H]1OC(=O)[C@H]1CCCCCC)OC(=O)C(CC(C)C)NC=O (some centres not stated)
TherapeuticCategory: antiobesity
  maximum recommended daily dose (mmol/kg-bw/day): 0.0121

## CN[C@@H]1[C@H](O[C@H]2[C@H](O[C@H]3[C@H](O)[C@@H](O)[C@H](N=C(N)N)[C@@H](O)[C@@H]3N=C(N)N)O[C@@H](C)[C@]2(O)C=O)O[C@@H](CO)[C@H](O[C@@H]2O[C@H](CO)[C@@H](O)[C@H](O)[C@@H]2O)[C@H]1O
[1]
  maximum recommended daily dose (mmol/kg-bw/day): 0.0269

## OCc1ccccc1
TherapeuticCategory: none
  maximum recommended daily dose (mmol/kg-bw/day): 0.0462

## CCCN[C@H]1CCc2nc(N)sc2C1
TherapeuticCategory: antiparkinsonian, dopamine receptor agonist
  maximum recommended daily dose (mmol/kg-bw/day): 0.000473

## CN1CCC(=C2c3ccccc3CCc3cccnc32)CC1
[2]
  maximum recommended daily dose (mmol/kg-bw/day): 0.000115

## CC(CCc1ccc(O)cc1)NCCc1ccc(O)c(O)c1 (configuration not stated)
TherapeuticCategory: cardiotonic
  maximum recommended daily dose (mmol/kg-bw/day): 0.000133

## CN1CCCN=C1COC(=O)C(O)(c1ccccc1)C1CCCCC1 (configuration not stated)
TherapeuticCategory: anticholinergic
  maximum recommended daily dose (mmol/kg-bw/day): 0.00145

## CC1(C)N=C(N)N=C(N)N1c1ccc(Cl)cc1
[3]
  maximum recommended daily dose (mmol/kg-bw/day): 0.00132

## CCOc1ccccc1C(N)=O
TherapeuticCategory: analgesic
  maximum recommended daily dose (mmol/kg-bw/day): 0.404

## CC(C)(CO)C(O)C(=O)NCCCO (configuration not stated)
[4]
  maximum recommended daily dose (mmol/kg-bw/day): 0.0406

## Cc1c(C(C)C)c(=O)n(-c2ccccc2)n1C
TherapeuticCategory: analgesic, antipyretic, antiphlogistic
  maximum recommended daily dose (mmol/kg-bw/day): 0.13

## COc1ccccc1OCC(O)CO (configuration not stated)
TherapeuticCategory: expectorant
  maximum recommended daily dose (mmol/kg-bw/day): 0.101

## CO[C@H]1C[C@H](O[C@H]2[C@H](C)O[C@@H](O[C@@H]3/C(C)=C/C[C@@H]4C[C@@H](C[C@]5(CC[C@H](C)[C@@H](C(C)C)O5)O4)OC(=O)[C@@H]4C=C(C)[C@@H](O)[C@H]5OC/C(=C\C=C\[C@@H]3C)[C@]54O)C[C@@H]2OC)O[C@@H](C)[C@@H]1O
TherapeuticCategory: anthelmintic
  maximum recommended daily dose (mmol/kg-bw/day): 0.000174

## NCCC[C@H](N)CC(=O)N[C@H]1CNC(=O)[C@H]([C@H]2C[C@H](O)NC(N)=N2)NC(=O)/C(=C/NC(N)=O)NC(=O)[C@H](CO)NC(=O)[C@H](CO)NC1=O (β3hOrn-[Dap]SS[ΔAla(Z-3-ureido)][X1]; lactam 1-C)
[1]
  maximum recommended daily dose (mmol/kg-bw/day): 0.0973

## CN1CCN(C2=Nc3ccccc3Oc3ccc(Cl)cc32)CC1
[5]
  maximum recommended daily dose (mmol/kg-bw/day): 0.0127

## Cc1ccc(N(CC2=NCCN2)c2cccc(O)c2)cc1
TherapeuticCategory: antihypertensive, diagnostic aid
  maximum recommended daily dose (mmol/kg-bw/day): 0.000594

## COC(=O)[C@H]1[C@H]2C[C@@H]3c4[nH]c5ccccc5c4CCN3C[C@H]2C[C@@H](OC(=O)c2cc(OC)c(OC)c(OC)c2)[C@@H]1OC
[6]
  maximum recommended daily dose (mmol/kg-bw/day): 2.89e-05

## CC(=O)N=c1sc(S(N)(=O)=O)nn1C
TherapeuticCategory: diuretic
  maximum recommended daily dose (mmol/kg-bw/day): 0.0212

## O=C(O)CN(CCN(CC(=O)O)CC(=O)O)CC(=O)O
TherapeuticCategory: pharmaceutic aid
  maximum recommended daily dose (mmol/kg-bw/day): 0.24

## OC(CCCN1CCCCC1)(c1ccccc1)c1ccccc1
TherapeuticCategory: antiemetic
  maximum recommended daily dose (mmol/kg-bw/day): 0.0162

## NC(=O)OCC(O)COc1ccc(Cl)cc1 (configuration not stated)
TherapeuticCategory: topical antifungal
  maximum recommended daily dose (mmol/kg-bw/day): 0.163

## C[C@]12C=CC(=O)C=C1CC[C@@H]1[C@@H]2CC[C@@]2(C)[C@H]1CC[C@]2(C)O
TherapeuticCategory: androgen
  maximum recommended daily dose (mmol/kg-bw/day): 0.000222

## CN(C)[C@@H]1C(=O)C(C(N)=O)=C(O)[C@@]2(O)C(=O)C3=C(O)c4c(O)ccc(Cl)c4[C@@](C)(O)[C@H]3C[C@@H]12
TherapeuticCategory: antibacterial, antiamebic
  maximum recommended daily dose (mmol/kg-bw/day): 0.0695

## CN(C)/N=N/c1nc[nH]c1C(N)=O
[7]
  maximum recommended daily dose (mmol/kg-bw/day): 0.0247

## C[C@@H]1CN2CC(=O)Nc3ccc(Cl)cc3[C@]2(c2ccccc2)O1
[5]
  maximum recommended daily dose (mmol/kg-bw/day): 0.00304

## CC[C@H]1CN2CCc3cc(OC)c(OC)cc3[C@@H]2C[C@@H]1C[C@H]1NCCc2cc(OC)c(OC)cc21
TherapeuticCategory: antiamebic
  maximum recommended daily dose (mmol/kg-bw/day): 0.00208

## CCc1nc(N)nc(N)c1-c1ccc(Cl)cc1
[3]
  maximum recommended daily dose (mmol/kg-bw/day): 0.00503

## CN(C)C(=O)Oc1cccc([N+](C)(C)C)c1
[4]
  maximum recommended daily dose (mmol/kg-bw/day): 0.028

## CC(=O)OCC(=O)[C@@]1(O)[C@H](C)C[C@H]2[C@@H]3C[C@H](F)C4=CC(=O)C=C[C@]4(C)[C@H]3[C@@H](O)C[C@@]21C
[8]
  maximum recommended daily dose (mmol/kg-bw/day): 0.000921

## CCCCc1ncc(/C=C(\Cc2cccs2)C(=O)O)n1Cc1ccc(C(=O)O)cc1
[6]
  maximum recommended daily dose (mmol/kg-bw/day): 0.0313

## CCCOC(=O)Cn1cc(I)c(=O)c(I)c1
[9]
  maximum recommended daily dose (mmol/kg-bw/day): 0.224

## CC(CN(C)C)CN1c2ccccc2S(=O)(=O)c2ccccc21 (configuration not stated)
[2]
  maximum recommended daily dose (mmol/kg-bw/day): 0.00202

## c1ccc(C2(c3ccccc3)CC2C2=NCCN2)cc1 (configuration not stated)
TherapeuticCategory: antiarrhythmic
  maximum recommended daily dose (mmol/kg-bw/day): 0.0248

## O=P(O)(O)OCC(O)CO (configuration not stated)
TherapeuticCategory: none
  maximum recommended daily dose (mmol/kg-bw/day): 0.388

## CNC1(C)C2CCC(C2)C1(C)C (configuration not stated)
[6]
  maximum recommended daily dose (mmol/kg-bw/day): 0.00249

## CC(C)(C)NC(=O)[C@@H]1CN(Cc2cccnc2)CCN1C[C@@H](O)C[C@@H](Cc1ccccc1)C(=O)N[C@H]1c2ccccc2C[C@H]1O
TherapeuticCategory: antiviral
  maximum recommended daily dose (mmol/kg-bw/day): 0.0264

## CC(=O)O[C@H]1C[C@@H]2CC[C@@H]3[C@H](CC[C@@]4(C)[C@H]3C[C@H]([N+]3(C)CCCCC3)[C@@H]4OC(C)=O)[C@@]2(C)C[C@@H]1[N+]1(C)CCCCC1
TherapeuticCategory: skeletal muscle relaxant
  maximum recommended daily dose (mmol/kg-bw/day): 0.000136

## O=C(O)c1cccnc1Nc1cccc(C(F)(F)F)c1
TherapeuticCategory: anti inflammatory
  maximum recommended daily dose (mmol/kg-bw/day): 0.0443

## CO[C@@]12[C@H](COC(N)=O)C3=C(C(=O)C(C)=C(N)C3=O)N1C[C@@H]1N[C@@H]12
[7]
  maximum recommended daily dose (mmol/kg-bw/day): 0.00162

## CCCc1c2oc(C(=O)O)cc(=O)c2cc2c(=O)cc(C(=O)O)n(CC)c12
TherapeuticCategory: antiallergic, antiasthmatic
  maximum recommended daily dose (mmol/kg-bw/day): 0.000627

## O=C(Oc1ccccc1C(=O)O)c1ccccc1O
TherapeuticCategory: analgesic, anti inflammatory
  maximum recommended daily dose (mmol/kg-bw/day): 0.258

## CC1(C)S[C@@H]2[C@H](NC(=O)[C@@H](NC(=O)N3CCNC3=O)c3ccccc3)C(=O)N2[C@H]1C(=O)O
[1]
  maximum recommended daily dose (mmol/kg-bw/day): 0.217

## CN(N=O)C(=O)N[C@@H]1[C@@H](O)[C@H](O)[C@@H](CO)O[C@@H]1O
[7]
  maximum recommended daily dose (mmol/kg-bw/day): 0.407

## C[C@@H](O)[C@H]1C(=O)N2C(C(=O)O)=C(SCCN=CN)C[C@H]12
[1]
  maximum recommended daily dose (mmol/kg-bw/day): 0.223

## Oc1ccc2c3c1O[C@H]1[C@@H](O)CC[C@@]4(O)[C@@H](C2)N(CC2CCC2)CC[C@]314
[10]
  maximum recommended daily dose (mmol/kg-bw/day): 0.0028

## C[C@H](N)Cc1ccccc1
TherapeuticCategory: CNS stimulant, anorexic
  maximum recommended daily dose (mmol/kg-bw/day): 0.0074

## CCCCC(CC)COC(=O)CC(C(=O)OCC(CC)CCCC)S(=O)(=O)O (configuration not stated)
TherapeuticCategory: stool softener
  maximum recommended daily dose (mmol/kg-bw/day): 0.0109

## CCC1(c2ccccc2)C(=O)NC(=O)N(C)C1=O (configuration not stated)
TherapeuticCategory: anticonvulsant, sedative, hypnotic
  maximum recommended daily dose (mmol/kg-bw/day): 0.0406

## C[C@H](O)C(=O)Nc1c(I)c(C(=O)NC(CO)CO)c(I)c(C(=O)NC(CO)CO)c1I
[9]
  maximum recommended daily dose (mmol/kg-bw/day): 0.129

## COc1ccc2c3c1O[C@H]1C(=O)CC[C@@]4(O)[C@@H](C2)N(C)CC[C@]314
[10]
  maximum recommended daily dose (mmol/kg-bw/day): 0.0169

## NC(=O)N1c2ccccc2C=Cc2ccccc21
TherapeuticCategory: analgesic, anticonvulsant
  maximum recommended daily dose (mmol/kg-bw/day): 0.113

## CNCCCC1c2ccccc2C=Cc2ccccc21
TherapeuticCategory: antidepressant
  maximum recommended daily dose (mmol/kg-bw/day): 0.0038

## CC(=O)[C@]1(O)Cc2c(O)c3c(c(O)c2[C@@H](O[C@H]2C[C@H](N)[C@H](O)[C@H](C)O2)C1)C(=O)c1c(O)cccc1C3=O
[7]
  maximum recommended daily dose (mmol/kg-bw/day): 0.00132

## Cc1ccc(C)c(OCCCC(C)(C)C(=O)O)c1
TherapeuticCategory: antihyperlipoproteinemic
  maximum recommended daily dose (mmol/kg-bw/day): 0.0799

## CCC(=O)OCC(=O)[C@@]1(OC(=O)CC)[C@@H](C)C[C@H]2[C@@H]3CCC4=CC(=O)C=C[C@]4(C)[C@@]3(F)[C@@H](O)C[C@@]21C
[8]
  maximum recommended daily dose (mmol/kg-bw/day): 0.000297

## CC(C)CC1Nc2cc(Cl)c(S(N)(=O)=O)cc2S(=O)(=O)N1 (configuration not stated)
TherapeuticCategory: diuretic, antihypertensive
  maximum recommended daily dose (mmol/kg-bw/day): 0.000707

## C[C@]12C=CC(=O)C=C1CC[C@@H]1[C@@H]2[C@@H](O)C[C@@]2(C)[C@H]1CC[C@]2(O)C(=O)CO
[8]
  maximum recommended daily dose (mmol/kg-bw/day): 0.00924
